Source: patent US12187684B2, “Benzimidazole derivatives as modulators of retinoid-related orphan receptor gamma (RORγ) and pharmaceutical use thereof” (Jiangsu Hengrui Medicine Co., Ltd., priority 2018, dated 2025)

Target: T1, RORγ LBD-GST tagged (Homo sapiens, UniProt P51449)
T1 construct: RORγ LBD-GST tagged (Cat No. RORC-114H, Creative Biomart); purchased Creative Biomart RORC-114H
T1 sequence (P51449 269-508 limits assumed): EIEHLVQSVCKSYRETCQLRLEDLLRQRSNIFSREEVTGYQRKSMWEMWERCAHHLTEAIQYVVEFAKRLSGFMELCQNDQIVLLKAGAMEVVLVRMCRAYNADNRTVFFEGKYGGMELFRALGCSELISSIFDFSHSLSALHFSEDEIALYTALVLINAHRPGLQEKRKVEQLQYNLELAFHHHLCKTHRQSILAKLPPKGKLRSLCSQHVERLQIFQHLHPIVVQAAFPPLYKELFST
Experiment: LanthaScreen TR-FRET RORγ coactivator assay
Assay type: biochemical
Conditions: Fluorescein-D22 coactivator peptide, 1 hour room temperature
Text: LanthaScreen TR-FRET Retinoid-Related Orphan Receptor Gamma (RORγ) Coactivator Assay Materials and Reagents • 1. […] Fluorescein-D22 coactivator peptide (Cat No. PV4386, Invitrogen) • 3. LanthaScreen™ Tb anti-GST antibody (Cat No. PV3550, Invitrogen) • 4. TR-FRET coregulatory buffer D (Cat No, PV4420, Invitrogen) • 5. DTT (Cat No. P2325, Fisher) • 6. […] Tecan Infinite M1000 plate reader (Tecan) Experimental Procedure Prepare Complete TR-FRET Coregulator Buffer D by adding 1 M DTT to TR-FRET Coregulator Buffer D to the final concentration of 5 mM DTT. Make compound dilution in Complete TR-FRET Coregulator Buffer D. Highest dose is 3 μM, 7-folder dilution for total 7 doses. Add 10 μL to each well of a 384-well plate. For the negative and positive controls, add 10 μL of Complete TR-FRET Coregulator Buffer D. Prepare RORγ LBD using Complete TR-FRET Coregulator Buffer D. The final concentration of RORγ LBD is 25 ng/reaction. Add 5 μL RORγ LBD to all the wells of the 384-well assay plate except negative wells which adding 5 μL Complete TR-FRET Coregulator Buffer D. Prepare a solution containing 0.6 μM Fluorescein-D22 and 8 nM Tb anti-GST antibody using Complete TR-FRET Coregulator Buffer D. Add 5 μL to all wells of the 384-well assay plate. Briefly and gently mix the 384-well plate on a plate shaker and incubate at room temperature protected from light for 1 hour. The plate may be sealed with a cover to minimize evaporation. Read the plate at wavelengths of 520 nm and 495 nm on Tecan Infinite M1000. IC50 values were calculated using GraphPad Prism by plotting the logarithm of compounds concentration versus percent inhibition.

Row | SMILES | IC50 [µM]
1 | CCS(=O)(=O)c1ccc(C(NC(C)=O)c2nc3c(Cl)c(-c4ccccc4OC(F)F)c(Cl)cc3[nH]2)cc1 (stereo not drawn) [Example 40, N-((4,6-dichloro-5-(2-(difluoromethoxy)phenyl)-1H-benzo[d]imidazol-2-yl)(4-(ethylsulfonyl)phenyl)methyl)acetamide] | 0.083
2 | CCS(=O)(=O)c1ccc(C(NC(=O)COC)c2nc3c(Cl)c(-c4ccccc4OC(F)F)c(Cl)cc3[nH]2)cc1 (stereo not drawn) [Example 41, N-((4,6-dichloro-5-(2-(difluoromethoxy)phenyl)-1H-benzo[d]imidazol-2-yl)(4-(ethylsulfonyl)phenyl)methyl)-2-methoxyacetamide] | 0.683
3 | CCS(=O)(=O)c1ccc(C(NC(=O)c2c(C)noc2C)c2nc3c(Cl)c(-c4ccccc4OC(F)F)c(Cl)cc3[nH]2)cc1 (stereo not drawn) [Example 42, N-((4,6-dichloro-5-(2-(difluoromethoxy)phenyl)-1H-benzo[d]imidazol-2-yl)(4-(ethylsulfonyl)phenyl)methyl)-3,5-dimethylisoxazole-4-carboxamide] | 0.113
4 | CCS(=O)(=O)c1ccc(C(N)c2nc3c(Cl)c(-c4ccccc4OC(F)(F)F)c(Cl)cc3[nH]2)cc1 (stereo not drawn) [Example 43, (4,6-dichloro-5-(2-(trifluoromethoxy)phenyl)-1H-benzo[d]imidazol-2-yl)(4-(ethylsulfonyl)phenyl)methanamine] | 0.656
5 | CCS(=O)(=O)c1ccc(C(NC(C)=O)c2nc3c(Cl)c(-c4ccccc4OC(F)(F)F)c(Cl)cc3[nH]2)cc1 (stereo not drawn) [Example 44, N-((4,6-dichloro-5-(2-(trifluoromethoxy)phenyl)-1H-benzo[d]imidazol-2-yl)(4-(ethylsulfonyl)phenyl)methyl)acetamide] | 0.026
6 | CS(=O)(=O)c1ccc(Cc2nc3c(Cl)c(-c4ccccc4C(F)(F)F)c(Cl)cc3[nH]2)cc1 [Example 45, 4,6-dichloro-2-(4-(methylsulfonyl)benzyl)-5-(2-(trifluoromethyl)phenyl)-1H-benzo[d]imidazole] | 0.535
7 | CS(=O)(=O)c1ccc(Cc2nc3c(Cl)c(-c4ccccc4OC(F)F)c(Cl)cc3[nH]2)cc1 [Example 47, 4,6-dichloro-5-(2-(difluoromethoxy)phenyl)-2-(4-(methylsulfonyl)benzyl)-1H-benzo[d]imidazole] | 0.196
8 | CS(=O)(=O)c1ccc(C(CO)c2nc3c(Cl)c(-c4ccccc4OC(F)F)c(Cl)cc3[nH]2)cc1 (stereo not drawn) [Example 48, 2-(4,6-dichloro-5-(2-(difluoromethoxy)phenyl)-1H-benzo[d]imidazol-2-yl)-2-(4-(methylsulfonyl)phenyl)ethanol] | 0.445
9 | CS(=O)(=O)c1ccc(C(O)c2nc3c(Cl)c(-c4ccccc4OC(F)F)c(Cl)cc3[nH]2)cc1 (stereo not drawn) [Example 49, (4,6-dichloro-5-(2-(difluoromethoxy)phenyl)-1H-benzo[d]imidazol-2-yl)(4-(methylsulfonyl)phenyl)methanol] | 0.255
10 | CCCS(=O)(=O)c1ccc(Cc2nc3c(Cl)c(-c4ccccc4OC(F)(F)F)c(Cl)cc3[nH]2)cc1 [Example 50, 4,6-dichloro-2-(4-(propylsulfonyl)benzyl)-5-(2-(trifluoromethoxy)phenyl)-1H-benzo[d]imidazole] | 0.284
11 | CCCS(=O)(=O)c1ccc(C(CO)c2nc3c(Cl)c(-c4ccccc4OC(F)(F)F)c(Cl)cc3[nH]2)cc1 (stereo not drawn) [Example 51, 2-(4,6-dichloro-5-(2-(trifluoromethoxy)phenyl)-1H-benzo[d]imidazol-2-yl)-2-(4-(propylsulfonyl)phenyl)ethanol] | 0.646
12 | CCCS(=O)(=O)c1ccc(C(O)c2nc3c(Cl)c(-c4ccccc4OC(F)(F)F)c(Cl)cc3[nH]2)cc1 (stereo not drawn) [Example 52, (4,6-dichloro-5-(2-(trifluoromethoxy)phenyl)-1H-benzo[d]imidazol-2-yl)(4-(propylsulfonyl)phenyl)methanol] | 0.135
13 | COCCS(=O)(=O)c1ccc(Cc2nc3c(Cl)c(-c4ccccc4OC(F)(F)F)c(Cl)cc3[nH]2)cc1 [Example 53, 4,6-dichloro-2-(4-((2-methoxyethyl)sulfonyl)benzyl)-5-(2-(trifluoromethoxy)phenyl)-1H-benzo[d]imidazole] | 0.575
14 | COCCS(=O)(=O)c1ccc(C(CO)c2nc3c(Cl)c(-c4ccccc4OC(F)(F)F)c(Cl)cc3[nH]2)cc1 (stereo not drawn) [Example 54, 2-(4,6-dichloro-5-(2-(trifluoromethoxy)phenyl)-1H-benzo[d]imidazol-2-yl)-2-(4-((2-methoxyethyl)sulfonyl)phenyl)ethanol] | 0.367
15 | COCCS(=O)(=O)c1ccc(C(O)c2nc3c(Cl)c(-c4ccccc4OC(F)(F)F)c(Cl)cc3[nH]2)cc1 (stereo not drawn) [Example 55, (4,6-dichloro-5-(2-(trifluoromethoxy)phenyl)-1H-benzo[d]imidazol-2-yl)(4-((2-methoxyethyl)sulfonyl)phenyl)methanol] | 0.194
16 | CS(=O)(=O)c1ccc(Cc2nc3c(Cl)c(-c4ccccc4OC(F)(F)F)c(Cl)cc3[nH]2)cc1 [Example 56, 4,6-dichloro-2-(4-(methylsulfonyl)benzyl)-5-(2-(trifluoromethoxy)phenyl)-1H-benzo[d]imidazole] | 0.879
17 | CS(=O)(=O)c1ccc(C(CO)c2nc3c(Cl)c(-c4ccccc4OC(F)(F)F)c(Cl)cc3[nH]2)cc1 (stereo not drawn) [Example 57, 2-(4,6-dichloro-5-(2-(trifluoromethoxy)phenyl)-1H-benzo[d]imidazol-2-yl)-2-(4-(methylsulfonyl)phenyl)ethanol] | 0.187
18 | CS(=O)(=O)c1ccc(C(O)c2nc3c(Cl)c(-c4ccccc4OC(F)(F)F)c(Cl)cc3[nH]2)cc1 (stereo not drawn) [Example 58, (4,6-dichloro-5-(2-(trifluoromethoxy)phenyl)-1H-benzo[d]imidazol-2-yl)(4-(methylsulfonyl)phenyl)methanol] | 0.266
19 | O=S(=O)(CC(F)(F)F)c1ccc(Cc2nc3c(Cl)c(-c4ccccc4OC(F)(F)F)c(Cl)cc3[nH]2)cc1 [Example 59, 4,6-dichloro-2-(4-((2,2,2-trifluoroethyl)sulfonyl)benzyl)-5-(2-(trifluoromethoxy)phenyl)-1H-benzo[d]imidazole] | 0.433
20 | O=S(=O)(CC(F)(F)F)c1ccc(C(CO)c2nc3c(Cl)c(-c4ccccc4OC(F)(F)F)c(Cl)cc3[nH]2)cc1 (stereo not drawn) [Example 60, 2-(4,6-dichloro-5-(2-(trifluoromethoxy)phenyl)-1H-benzo[d]imidazol-2-yl)-2-(4-((2,2,2-trifluoroethyl)sulfonyl)phenyl)ethanol] | 0.409
21 | O=S(=O)(CCF)c1ccc(Cc2nc3c(Cl)c(-c4ccccc4OC(F)(F)F)c(Cl)cc3[nH]2)cc1 [Example 61, 4,6-dichloro-2-(4-((2-fluoroethyl)sulfonyl)benzyl)-5-(2-(trifluoromethoxy)phenyl)-1H-benzo[d]imidazole] | 0.509
22 | O=S(=O)(CCF)c1ccc(C(CO)c2nc3c(Cl)c(-c4ccccc4OC(F)(F)F)c(Cl)cc3[nH]2)cc1 (stereo not drawn) [Example 62, 2-(4,6-dichloro-5-(2-(trifluoromethoxy)phenyl)-1H-benzo[d]imidazol-2-yl)-2-(4-((2-fluoroethyl)sulfonyl)phenyl)ethanol] | 0.154
23 | O=S(=O)(CCF)c1ccc(Cc2nc3c(Cl)c(-c4ccccc4C(F)(F)F)c(Cl)cc3[nH]2)cc1 [Example 63, 4,6-dichloro-2-(4-((2-fluoroethyl)sulfonyl)benzyl)-5-(2-(trifluoromethyl)phenyl)-1H-benzo[d]imidazole] | 0.592
24 | O=S(=O)(CCF)c1ccc(C(CO)c2nc3c(Cl)c(-c4ccccc4C(F)(F)F)c(Cl)cc3[nH]2)cc1 (stereo not drawn) [Example 64, 2-(4,6-dichloro-5-(2-(trifluoromethyl)phenyl)-1H-benzo[d]imidazol-2-yl)-2-(4-((2-fluoroethyl)sulfonyl)phenyl)ethanol] | 0.465
25 | O=S(=O)(c1ccc(Cc2nc3c(Cl)c(-c4ccccc4C(F)(F)F)c(Cl)cc3[nH]2)cc1)C(F)(F)F [Example 65, 4,6-dichloro-5-(2-(trifluoromethyl)phenyl)-2-(4-((trifluoromethyl)sulfonyl)benzyl)-1H-benzo[d]imidazole] | 0.015
26 | O=S(=O)(CC1CC1)c1ccc(C(O)c2nc3c(Cl)c(-c4ccccc4C(F)(F)F)c(Cl)cc3[nH]2)cc1 (stereo not drawn) [Example 71, (4-((cyclopropylmethyl)sulfonyl)phenyl)(4,6-dichloro-5-(2-(trifluoromethyl)phenyl)-1H-benzo[d]imidazol-2-yl)methanol] | 0.004
27 | O=S(=O)(CC1CC1)c1ccc(C(CO)c2nc3c(Cl)c(-c4ccccc4F)c(Cl)cc3[nH]2)cc1 (stereo not drawn) [Example 74, 2-(4-((cyclopropylmethyl)sulfonyl)phenyl)-2-(4,6-dichloro-5-(2-fluorophenyl)-1H-benzo[d]imidazol-2-yl)ethanol] | 0.187
